The target of assay [1] is T1, proMMP9(20-445;ΔFnII) (SEQ ID NO:6) (Homo sapiens, UniProt P14780, DEL216-390).
T1 construct: amino acid pairs including: 29-215/391-444, 67-215/391-444, and 20-215/391-445, respectively; start methionine (N); made in house; host or cells: E. coli BL21(DE3) RIL
T1 sequence (P14780 with tags, fused parts or gaps DEL216-390): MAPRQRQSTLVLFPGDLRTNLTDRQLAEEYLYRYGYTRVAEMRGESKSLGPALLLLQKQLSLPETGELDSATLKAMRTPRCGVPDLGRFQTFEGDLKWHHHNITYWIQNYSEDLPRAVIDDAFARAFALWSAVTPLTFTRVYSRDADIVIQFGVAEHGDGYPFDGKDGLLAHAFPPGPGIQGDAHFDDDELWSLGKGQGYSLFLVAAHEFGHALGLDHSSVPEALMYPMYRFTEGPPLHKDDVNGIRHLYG
Briefly: ThermoFluor binding assay with proMMP9(20-445;ΔFnII). The procedure:
(§1) The experiments were carried out using instruments available from Johnson & Johnson Pharmaceutical Research & Development, LLC. TF dye used in all experiments was […] (1,8-ANS) (Invitrogen: A-47).
(§2) Columns 12 and 24 were used as DMSO reference and contained no compound. […] Following compound dispense, protein and dye solutions were added to achieve the final assay volume of 3 μL.
(§3) Assay plates were robotically loaded onto a thermostatically controlled PCR-type thermal block and then heated from 40 to 90° C. at a ramp-rate of 1° C./min for all experiments. Fluorescence was measured by continuous illumination with UV light (Hamamatsu LC6) supplied via fiber optics and filtered through a band-pass filter (380-400 nm; >6 OD cutoff). Fluorescence emission of the entire 384-well plate was detected by measuring light intensity using a CCD camera (Sensys, Roper Scientific) filtered to detect 500±25 nm, resulting in simultaneous and independent readings of all 384 wells.
(§4) Thermodynamic parameters necessary for fitting compound binding for each proMMP were estimated by differential scanning calorimetry (DSC) and from ThermoFluor® data. The heat capacity of unfolding for each protein was estimated from the molecular weight and from ThermoFluor® dosing data.
The protein sample preparations included a desalting buffer exchange step via a PD-10 gravity column (GE Healthcare).

Assay [2] deals with T2, proMMP9(67-444;ΔFnII) (SEQ ID NO:5) (Homo sapiens, UniProt P14780, DEL216-390).
T2 construct: amino acid pairs including: 29-215/391-444, 67-215/391-444, and 20-215/391-445, respectively; start methionine (N); made in house; host or cells: E. coli BL21(DE3) RIL
T2 sequence (P14780 with tags, fused parts or gaps DEL216-390): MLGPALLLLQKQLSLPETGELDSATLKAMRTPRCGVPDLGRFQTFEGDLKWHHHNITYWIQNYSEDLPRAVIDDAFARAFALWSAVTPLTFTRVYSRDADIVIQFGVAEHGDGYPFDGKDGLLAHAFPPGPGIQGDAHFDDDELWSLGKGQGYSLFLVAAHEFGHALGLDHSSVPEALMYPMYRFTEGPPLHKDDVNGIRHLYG
Briefly: ThermoFluor binding assay with proMMP9(67-444;ΔFnII). On the procedure:
as §1, §2, §3, §4
The protein sample preparations had to include a desalting buffer exchange step via a PD-10 gravity column (GE Healthcare).
(In general: DSF heats the sample and reads unfolding from a dye or from intrinsic fluorescence.)

In assay [3] the target is T3, proMMP13(1-268) (SEQ ID NO:7) (Homo sapiens, UniProt P45452).
T3 construct: 6x-histidine tag (C); made in house; host or cells: HEK293
As to the kind of experiment: ThermoFluor binding assay with proMMP13(1-268). On the procedure: The ThermoFluor® (TF) assay is a 384-well plate-based binding assay that measures thermal stability of proteins (Biomol Screen 2001, 6, 429-40; Biochemistry 2005, 44, 5258-66). The experiments were carried out using instruments available from Johnson & Johnson Pharmaceutical Research & Development, LLC. TF dye used in all experiments was […] (1,8-ANS) (Invitrogen: A-47).
Compounds were arranged in a pre-dispensed plate (Greiner Bio-one: 781280), wherein compounds were serially diluted in 100% DMSO across 11 columns within a series. Columns 12 and 24 were used as DMSO reference and contained no compound. For multiple compound concentration-response experiments, the compound aliquots ([…]) were robotically predispensed directly into black 384-well polypropylene PCR microplates (Abgene: TF-0384/k) using a Cartesian Hummingbird liquid handler (DigiLab, Holliston, Mass.). Following compound dispense, protein and dye solutions were added to achieve the final assay volume of 3 μL. The assay solutions were overlayed with 1 μL of silicone oil (Fluka, type DC 200: 85411) to prevent evaporation.
as §3, with “wells. A single image with 20-sec exposure time was collected at each temperature, and the sum of the pixel intensity in a given area of the assay plate was recorded vs temperature and fit to standard equations to yield the Tm (J Biomol Screen 2001, 6, 429-40).” for “wells.”
as §4
The proMMP13(1-268) (SEQ ID NO:7) protein sample preparations included a desalting buffer exchange step via a PD-10 gravity column (GE Healthcare). The desalting buffer exchange was performed prior to diluting the protein to the final assay concentration of 3.5 μM. The concentration of proMMP13(1-268) (SEQ ID NO:7) was estimated spectrophotometrically based on a calculated extinction coefficient of ε280=37000 M^−1 cm^−1, a calculated molecular weight of 30.8 kDa, and calculated pI of 5.33. ThermoFluor® reference conditions were defined as follows: 100 μg/mL proMMP13(1-268) (SEQ ID NO:7), 25 μM 1,8-ANS, pH 7.0 Buffer (50 mM HEPES pH 7.0, 100 mM NaCl, 0.001% Tween-20, 2.5 mM MgCl2, 300 μM CaCl2). The thermodynamic parameters for proMMP13(1-268) (SEQ ID NO:7) are as follows: Tm (° C.)=67 (+/−0.1), ΔUH(Tm) (cal mol^−1)=107000(+/−5000), ΔUS(Tm) (cal mol^−1 K^−1)=318, ΔUCp (cal mol^−1 K^−1)=2600.

In assay [4] the target is full-length proMMP9(1-707) activation by catalytic MMP3 (Homo sapiens, UniProt P14780, R574P). Briefly: ProMMP9/MMP3 DQ Gelatin Activation Assay.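 Note: readout is fluorescence of quenched fluorescein gelatin cut by activated MMP9, 30 min activation at 37 °C, inhibition relative to DMSO-only controls with EDTA as blank.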 The format is biochemical. Particulars: proMMP9 from COS-1 cells; read-out: ProMMP9/MMP3 DQ gel, IC50. Also noted: made in house; host or cells: COS-1 (proMMP9); E. coli (MMP3).
Sequence of full-length proMMP9(1-707) activation by catalytic MMP3 (P14780 20-707 R574P): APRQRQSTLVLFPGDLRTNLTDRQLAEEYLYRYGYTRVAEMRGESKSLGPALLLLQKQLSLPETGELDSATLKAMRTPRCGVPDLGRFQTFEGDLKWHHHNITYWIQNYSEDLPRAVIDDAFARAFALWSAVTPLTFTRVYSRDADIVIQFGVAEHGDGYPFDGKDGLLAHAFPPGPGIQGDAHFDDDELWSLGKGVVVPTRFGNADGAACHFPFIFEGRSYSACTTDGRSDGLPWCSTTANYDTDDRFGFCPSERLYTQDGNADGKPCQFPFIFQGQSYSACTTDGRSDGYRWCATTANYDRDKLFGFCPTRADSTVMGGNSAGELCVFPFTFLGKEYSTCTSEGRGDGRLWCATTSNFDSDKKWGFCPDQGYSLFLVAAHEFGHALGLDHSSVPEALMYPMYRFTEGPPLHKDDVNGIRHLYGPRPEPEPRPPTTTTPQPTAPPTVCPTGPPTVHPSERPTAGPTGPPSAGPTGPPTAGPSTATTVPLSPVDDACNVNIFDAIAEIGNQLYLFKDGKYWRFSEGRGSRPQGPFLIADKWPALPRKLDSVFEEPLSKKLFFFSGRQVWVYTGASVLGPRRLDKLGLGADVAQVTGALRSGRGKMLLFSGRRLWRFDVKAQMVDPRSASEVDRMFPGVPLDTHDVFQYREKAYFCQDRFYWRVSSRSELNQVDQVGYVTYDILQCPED

What is called Kd is the equilibrium constant for the complex coming apart.

Counter-ions that a name gives are not always drawn.

Regarding `COc1c(Cl)cccc1Nc1nc(-c2sc(N)nc2C)cs1` [Example 7, N^2-(3-Chloro-2-methoxy-phenyl)-4′-methyl-[4,5′]bithiazolyl-2,2′-diamine.HBr], the Kd in assay [1] came to 12.9 µM; in assay [2], 8.84 µM; in assay [3], 44.6 µM.

Regarding `Cc1nc(N)sc1-c1csc(Nc2cccc(C(N)=O)c2)n1` [Example 8, 3-(2′-Amino-4′-methyl-[4,5′]bithiazolyl-2-ylamino)-benzamide.HBr], the Kd stood at 10.8 µM in assay [1], 30.2 µM in assay [2] and 26.9 µM in assay [3].

As to `COc1ccccc1Nc1nc(-c2cnc(N)s2)cs1` [Example 10, N^2-(2-Methoxy-phenyl)-[4,5′]bithiazolyl-2,2′-diamine.HBr], the Kd in assay [1] turned out to be 9.61 µM; in assay [2], 3.67 µM; in assay [3] it was 55.9 µM.

Regarding `CCc1nc(N)sc1-c1nc(Nc2ccccc2OC)sc1C` [Example 11, 4′-Ethyl-N^2-(2-methoxy-phenyl)-5-methyl-[4,5′]bithiazolyl-2,2′-diamine], the Kd in assay [1] was more than 95 µM; in assay [2] it was 19.9 µM; in assay [3], 58.9 µM.

With `CCc1nc(N)sc1-c1nc(Nc2cc(Cl)ccc2OC)sc1C` [Example 17, N^2-(5-Chloro-2-methoxy-phenyl)-4′-ethyl-5-methyl-[4,5′]bithiazolyl-2,2′-diamine], the Kd in assay [1] turned out to be 15.6 µM; in assay [2] it was 3.99 µM; in assay [3], 10.7 µM.

Turning to `COc1ccccc1Nc1nc(-c2sc(N)nc2C(F)(F)F)cs1` [Example 22, N^2-(2-Methoxy-phenyl)-4′-trifluoromethyl-[4,5′]bithiazolyl-2,2′-diamine.TFA], the Kd in assay [1] came out at 12.3 µM; in assay [2], 2.32 µM; in assay [3] it was 44.2 µM.

For the molecule `COc1ccccc1Nc1nc(-c2sc(-c3cnccn3)nc2C)cs1` [Example 26, (2-Methoxy-phenyl)-(4′-methyl-2′-pyrazin-2-yl-[4,5′]bithiazolyl-2-yl)-amine.TFA], the values for the Kd in assay [1], in assay [2] and in assay [3] were more than 95 µM, more than 95 µM and 4.78 µM, respectively. In addition, the IC50 in assay [4] is 13.8 µM.

As to `COc1ccc(-c2csc(Nc3ccccc3OC)n2)cn1` [Example 28, (2-Methoxy-phenyl)-[4-(6-methoxy-pyridin-3-yl)-thiazol-2-yl]-amine.TFA], the Kd in assay [1] is more than 65 µM; in assay [2], 22.6 µM; in assay [3], more than 95 µM. Also, the IC50 in assay [4] was determined as 15.6 µM.

For `COc1ccccc1Nc1nc(-c2cc(C)ccn2)cs1` [Example 30, (2-Methoxy-phenyl)-[4-(4-methyl-pyridin-2-yl)-thiazol-2-yl]-amine.TFA], the values for the Kd in assay [1], in assay [2] and in assay [3] were more than 95 µM, 13.8 µM and 42 µM, respectively.

As to `COc1ccccc1Nc1nc(-c2sc(NC(C)C)nc2C)cs1` [Example 37, N^2′-Isopropyl-N^2-(2-methoxy-phenyl)-4′-methyl-[4,5′]bithiazolyl-2,2′-diamine.HCl], the values for the Kd in assay [1], in assay [2] and in assay [3] were 5.16 µM, 4.48 µM and more than 95 µM, respectively. In assay [4], the IC50 was more than 20 µM.

Turning to `COc1ccccc1Nc1nc(-c2ccc(-c3ccccc3)s2)cs1` [Example 43, (2-Methoxy-phenyl)-[4-(5-phenyl-thiophen-2-yl)-thiazol-2-yl]-amine.TFA], the Kd in assay [1] stood at 76.7 µM; in assay [2] it was 13.1 µM; in assay [3], 20.4 µM. The IC50 in assay [4] was more than 20 µM.

As for `COc1ccccc1Nc1nc(-c2oc(C)nc2C)cs1` [Example 44, [4-(2,4-Dimethyl-oxazol-5-yl)-thiazol-2-yl]-(2-methoxy-phenyl)-amine.TFA], the Kd was more than 95 µM in assay [1], 44.7 µM in assay [2] and more than 95 µM in assay [3]. The IC50 in assay [4] worked out at 11.9 µM.

In the case of `COc1ccccc1Nc1nc(-c2c(C)nc3ccccn23)cs1` [Example 46, (2-Methoxy-phenyl)-[4-(2-methyl-imidazo[1,2-a]pyridin-3-yl)-thiazol-2-yl]-amine], the Kd came to 65.2 µM in assay [1], 36.7 µM in assay [2] and 16 µM in assay [3]. Further, in assay [4], the IC50 is 8.6 µM.

On to `CCOc1ccccc1Nc1nc(-c2sc(NC(=O)CC)nc2C)cs1` [Example 47, N-[2-(2-Ethoxy-phenylamino)-4′-methyl-[4,5′]bithiazolyl-2′-yl]-propionamide], for which the Kd in assay [1] was more than 90 µM; in assay [2] it was 40.9 µM; in assay [3], more than 95 µM. For the same molecule, the IC50 in assay [4] worked out at 5.2 µM.

Regarding `CCOc1ccccc1Nc1nc(-c2c(C)nc3ncccn23)cs1` [Example 52, (2-Ethoxy-phenyl)-[4-(2-methyl-imidazo[1,2-a]pyrimidin-3-yl)-thiazol-2-yl]-amine], the Kd in assay [1] came out at 7.27 µM; in assay [2] it was 9.09 µM; in assay [3], 13.2 µM. Besides, the IC50 in assay [4] worked out at 3.3 µM.

As to `CCOc1ccccc1Nc1nc(-c2cccnc2)cs1` [Example 53, (2-Ethoxy-phenyl)-(4-pyridin-3-yl-thiazol-2-yl)-amine], the Kd in assay [1] was 28.6 µM; in assay [2], 15.1 µM; in assay [3] it was more than 95 µM. Also, in assay [4], the IC50 came out at 4.7 µM.

Turning to `COc1ccccc1Nc1nc(-c2cccnc2)cs1` [Example 55, (2-Methoxy-phenyl)-(4-pyridin-3-yl-thiazol-2-yl)-amine], the Kd in assay [1] was more than 95 µM; in assay [2], 22.5 µM; in assay [3] it was more than 95 µM. Also, the IC50 in assay [4] worked out at 13 µM.

As for `CCC(=O)Nc1nc(C)c(-c2csc(Nc3ccccc3OC)n2)s1` [Example 58, N-[2-(2-Methoxy-phenylamino)-4′-methyl-[4,5′]bithiazolyl-2′-yl]-propionamide], the Kd is 13.4 µM in assay [1], 3.01 µM in assay [2] and more than 95 µM in assay [3]. Also, the IC50 in assay [4] is 2.6 µM.

(Values after patent US20120302573A1, “METHODS OF INHIBITING PRO MATRIX METALLOPROTEINASE ACTIVATION” (priority 2011, published 2012).)
